This note sets out measurements from patent publication US8334316B2, “Substituted organosulfur compounds and methods of using thereof” (ACEA Biosciences, Inc., priority 2004, dated 2012).

“Also recorded” adds a separate entry of the source.

Holding throughout (format): cell-based
Experiment [1] relates to HepG2 cells. Put plainly: MTT assay IC50 (48 h), HepG2 (eighth cell line not given). The conditions noted are these: Homo sapiens; HepG2, 48 hours. Here is the method: (§1) In another assay format, a test compound is assayed for its cytotoxicity and/or cytostatic effect on certain cancer cell types, using endpoint assay methods. Cells in the NCI cancer cell panel may be used. Cells after a pre-incubation for certain length of time (for example, 8 hrs or 24 hrs) are incubated with a test compound at serially-diluted concentrations (for example, five 10-fold dilutions) for 24 hrs and/or 48 hrs, and/or other specific length of time. The dose dependent cytotoxicity and/or cytostatic effects of test compounds can then be tested and evaluated using the 3-(4,5-dimethylthiazol-2-yl)-2,5-diphenyltetrazolium bromide (MTT) assay method, as described by, for example, Boyd (In Principle of Practice of Oncology, Devita, J. T., Hellman, S. and Rosenberg S. A. (Eds), 1989, Vol, 3, PPO Update, No. 10).
(§2) The anticancer potency of DBTS and its derivatives were tested in 8 different types of human cancer cell lines using the RT-CES system and MTT assay. The 8 cancer cell lines were HT1080 (the human fibrosarcoma cell line), H460 (human non small cell lung cancer cell line), OVCAR4 (the human ovarian cancer cell line), MCF7 (human breast cancer cell line) MDA-MB231 (M231, the human breast cancer cell line) A2780 (the human […] cancer cell line) Jurkat (the human T cell leukemia cell line). The test DBTS derivatives include ACEA100107, ACEA100108, ACEA100109, ACEA100111, ACEA100115, ACEA100116, ACEA100117, ACEA100118, ACEA100119, and ACEA100120.
(§3) For the MTT assay, the cells were seeded into the regular 96× well plates at the cell seeding density ranging from 5000 cells/well to 15,000 cells/well. The cells were incubated at 5% CO2 and 37° C. for overnight. The derivatives were serially diluted and added to the cells. The treatment was terminated after 48 hours of incubation by adding MTT staining reagent. After 4 hours, the staining was stopped by the stop buffer and then the calorimetric measurement was carried out on a microtiter plate reader at dual wave length, 650 nm and 550 nm.
Background: Tetrazolium dyes change colour on reduction, which living cells bring about.

In experiment [2] the test system is MDA-MB231 (M231, human breast cancer cell line). Briefly: MTT assay IC50 (48 h), MDA-MB231. The conditions noted are these: MDA-MB-231, M231, 48 hours. Here is the method: as §1, §2, §3
The test system of experiment [3] is HepG2 cells (human hepatosarcoma). Put plainly: RT-CES system cell proliferation/cytotoxicity, HepG2. As to conditions: for IC50: Homo sapiens, HepG2, time point of maximum inhibition. The source says: The RT-CES system comprises three components, an electronic sensor analyzer, a device station and 16× or 96× microtiter plate devices. Microelectrode sensor array was fabricated on glass slides with lithographical microfabrication methods and the electrode-containing slides are assembled to plastic trays to form electrode-containing wells. Each 16× (or 96×) microtiter plate device used in RT-CES system comprises up to 16 (or 96) such electrode-containing wells. The device station receives the 16× or 96× microtiter plate devices and is capable of electronically switching any one of the wells to the sensor analyzer for impedance measurement. In operation, the devices with cells cultured in the wells are placed into a device station that is located inside an incubator. Electrical cables connect the device station to the sensor analyzer. Under the RT-CES software control, the sensor analyzer can automatically select wells to be measured and continuously conduct impedance measurements. The impedance data from the analyzer is transferred to a computer, analyzed and processed by the integrated software.
To quantify cell status based on the measured cell-electrode impedance, a parameter termed Cell Index is derived, according to
[formula] where Rb(f) and Rcell(f) are the frequency dependent electrode resistances (a component of impedance) without cells or with cell present, respectively. N is the number of the frequency points at which the impedance is measured. Thus, Cell Index is a quantitative measure of the status of the cells in an electrode-containing well. Under the same physiological conditions, more cells attached on to the electrodes leads to larger Rcell(f) value, leading to a larger value for Cell Index. Furthermore, for the same number of cells present in the well, a change in the cell status such as morphology will lead to a change in the Cell Index. For example, an increase in cell adhesion or cell spreading leads to larger cell-electrode contact area which will lead to an increase in Rcell(f) and thus a larger value for Cell Index. The Cell Index may also be calculated using a formula different from the one described here. Other methods for calculating the Cell Index based on impedance measurement can be found in PCT application number PCT/US04/37696, fined on Nov. 12, 2004, PCT application number PCT/US05/04481, filed on Feb. 9, 2005, U.S. patent application Ser. No. 10/987,732, filed on Nov. 12, 2004, and U.S. patent application Ser. No. 11/055,639, filed on Feb. 9, 2005.
Different types of human cancer cells, including NCI-H460 (non-small cell lung cancer cells), MV522 SW (non-small cell lung cancer cells), MCF7 (breast cancer cells), A549 (non-small cell lung cancer cells), PC3 (prostate cancer cells), A431 (epidermoid cancer cells), HT1080 (fibrosarcoma cells), MDA.MB2321 (breast cancer cells), HT29 (colon cancer cells), HCC2998 (colon cancer cells), OVCAR4 (ovarian cancer cells), A2780 (ovarian cancer cells) and HepG2 (human hepatosarcoma) with different numbers (4000 to 20,000 per well) were seeded into 16× or 96× microtiter device and monitored by RT-CES™ system. The cells were allowed to grow for about 24 hours prior to the addition of dibenzyl trisulfide dissolved in DMSO solution (final DMSO concentration: 0.2%; final dibenzyl trisulfide concentration: between 1.5625 μM and 100 μM). The cell-electrode impedance was continuously measured and the corresponding, time dependent cell-index values were derived and recorded.
HepG2 cells (human hepatosarcoma cells) were seeded into wells of 16× or 96× microtiter plate devices (electronic plates, i.e., the plates comprise microelectrode sensor arrays in the wells of the plate) with an initial seeding density of 15,000 cells per well and were pre-incubated in incubator under standard cell culture conditions for about 22 hrs. Dibenzyl trisulfide solution in DMSO was added into wells following the incubation period. […]

In the case of `Clc1ccc(CSSSCc2ccc(Cl)cc2)cc1` [ACEA100118, Di(p-chlorobenzyl)trisulfide], the concentration for half-maximal inhibition (IC50) in experiment [1] is over 50 µM; in experiment [2], 1.2 µM; in experiment [3], over 50 µM.
Take `c1ccc(CSSSCc2ccccc2)cc1` [DBTS, Dibenzyl trisulfide]: the IC50 in experiment [1] is over 50 µM; in experiment [2] it was 2.4 µM; in experiment [3] it was over 50 µM. In experiment [3] (within the exposing dose range (1.5625-100 μM)), the “Effect on HepG2 cell proliferation (cell index)” value is “did not demonstrate anti-proliferation ability; also recorded: exhibits no inhibition effect on HepG2 cell proliferation and no cytotoxic effect”.
As for `Fc1ccc(CSSSCc2ccc(F)cc2)cc1` [ACEA100108, Di(p-fluorobenzyl)trisulfide], the results for the 50% inhibitory concentration (IC50) in experiment [1], in experiment [2] and in experiment [3] were over 50 µM, 4.4 µM and over 50 µM, respectively.
On to `Cc1cccc(CSSSCc2cccc(C)c2)c1` [ACEA100116, di(m-methylbenzyl)trisulfide], for which the IC50 was over 50 µM in experiment [1], 0.65 µM in experiment [2] and over 50 µM in experiment [3].
For the molecule `FC(F)(F)c1cccc(CSSSCc2cccc(C(F)(F)F)c2)c1` [ACEA100117, Di(m-trifluoromethylbenzyl)trisulfide], the IC50 in experiment [1] is over 50 µM; in experiment [2], 14.9 µM; in experiment [3], over 50 µM.
As for `Clc1ccccc1CSSSCc1ccccc1Cl` [ACEA100115, Di(o-chlorobenzyl)trisulfide], the IC50 in experiment [1] is over 50 µM; in experiment [2] it was 3.1 µM; in experiment [3] it was over 50 µM.

A word on the IC50: it is the concentration at which inhibition is half-maximal. Low values mean greater potency in that assay, high ones weaker potency in that assay.
